According to patent US6020374A, “Biologically active synthetic dye compounds” (priority 1998, dated 2000):

Experiments:
MCF-7 cells = assay: Cell death estimation, cycloheximide-exposed MCF-7 cells (trypan blue); format: cell-based
Experimental: Subconfluent cultures of MCF-7 cells in 35 mm dishes, were deprived of serum for 20 hours and then exposed to 30 μg/ml cycloheximide in the presence or absence of increasing concentrations of fractionated ATA, crude ATA or EB. After 48 hours, the cells were detached with trypsin. The medium and the detached cells were pooled and centrifuged at 1000×g for 10 mins. Cell viability was estimated by adding an equivalent volume of trypan blue solution to an aliquot of suspended cells. Stained and unstained cells were counted on a hemocytometer (10^3 cells were counted for each determination).
Subconfluent, 20 hours starved MCF-7 cells were exposed to 30 μg/ml
of cycloheximide in the presence of increasing
concentrations of fractionated ATA (0, 6, 12, 25, 50 μg/ml). After
48 hours, percent of dead cells was
determined as described under "Experimental procedures". In the
presence of cycloheximide only, 60-70% of
the cells were dead after 48 hours.
Cultures of […] cells were exposed to 30 μg CX for 48 hours in the presence of EB, ATA, IGF-1, or nothing.

[1] = tested on: MAPK-1 (44 kDa) and MAPK-2 (42 kDa); assay: Activation of MAPKs in MCF-7 cells (anti-active MAPK immunoblot); format: cell-based; conditions: 5 mins., ATA, EB each at 300 μg/ml, IGF-1 20 or 40 ng/ml
Experimental: FIG. 7 is the effect of ATA and EB on activation of MAPKs: MCF-7 cells were treated for 5 mins. with ATA, EB, each at 300 μg/ml, 20 ng/ml or 40 ng/ml IGF-1. Cell lysates, solubilized in Buffer C, were subjected to 12% SDS-PAGE and immunoblotted with an anti-active MAPK antibody. The membrane, after ECL detection, was stripped of bound antibody and blotted with an anti-MAPK antibody.
Nitrocellulose blots of proteins were incubated with the antibodies, and proteins were detected by enhanced chemiluminescence using horseradish peroxidase-labeled protein A, horseradish peroxidase-labeled anti rabbit IgG or horseradish peroxidase-labeled anti-mouse IgG.
The activated forms of MAPKs were detected by anti-active MAPK immunoblotting in the MCF-7 cell's lysates. […] Blotting with anti MAPKs antibodies confirms that similar amounts of MAPKs were present in treated and non-treated cells.

SMILES | Percent dead cells (MCF-7 cells; CX only, 30 μg, 48 hours, Control without CX 10 ± 3) | cytotoxicity at 30 µg/mL (MCF-7 cells; Homo sapiens, MCF7, 48 h, read-out: cells dead after 48 hours) | Phosphorylated (active) isoforms MAPK-1 and MAPK-2 [1]
C[C@@H]1C[C@@H]([C@H](O)CC2CC(=O)NC(=O)C2)C(=O)[C@@H](C)C1 [CX, cycloheximide, reference compound] | 56 ± 5% | 60 to 70% | 
CCCCCCCCCCCCCC(=O)O[C@@H]1[C@@H](C)[C@@]2(O)[C@@H](C=C(CO)C[C@]3(O)C(=O)C(C)=C[C@@H]23)[C@@H]2C(C)(C)[C@]12OC(C)=O [TPA, reference compound] |  |  | clearly detected
